“And” between values parts separate entries of the source, which are not always exact repeats. Identical values can stand only once. Toxic doses and inconclusive results are not listed.
Test system: P388 leukemia ip, CD2F1 mice, survival T/C
Test: NCI In Vivo Anticancer Drug Screen. Data for tumor model P388 Leukemia (intraperitoneal) in CD2F1 (CDF1) mice
Conditions: endpoint: median survival time, higher = longer survival
Method in brief: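 Mice carrying the transplanted tumor received test compound or vehicle. Survival was recorded in each group, and the value is the treated-group measurement divided by that of the vehicle-treated control group.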

[1] = dose: 50.0 mg/kg/injection, schedule: Q01DX009 (ip), vehicle: suspension in saline
[2] = dose: 100.0 mg/kg/injection, schedule: Q01DX009 (ip), vehicle: suspension in saline
[3] = dose: 200.0 mg/kg/injection, schedule: Q01DX009 (ip), vehicle: suspension in saline
[4] = dose: 6.25 mg/kg/injection, schedule: Q01DX009 (ip), vehicle: saline with Tween-80
[5] = dose: 12.5 mg/kg/injection, schedule: Q01DX009 (ip), vehicle: saline with Tween-80
[6] = dose: 60.0 mg/kg/injection, schedule: Q01DX005 (ip), vehicle: saline with Tween-80
[7] = dose: 120.0 mg/kg/injection, schedule: Q01DX005 (ip), vehicle: saline with Tween-80
[8] = dose: 240.0 mg/kg/injection, schedule: Q01DX005 (ip), vehicle: saline with Tween-80
[9] = dose: 50.0 mg/kg/injection, schedule: Q01DX005 (ip), vehicle: Klucel (hydroxypropylcellulose) (HPC)
[10] = dose: 100.0 mg/kg/injection, schedule: Q01DX005 (ip), vehicle: Klucel (hydroxypropylcellulose) (HPC)
[11] = dose: 50.0 mg/kg/injection, schedule: Q01DX009 (ip), vehicle: saline
[12] = dose: 25.0 mg/kg/injection, schedule: Q04DX003 (ip), vehicle: saline with Tween-80
[13] = dose: 50.0 mg/kg/injection, schedule: Q04DX003 (ip), vehicle: saline with Tween-80
[14] = dose: 100.0 mg/kg/injection, schedule: Q01DX009 (ip), vehicle: saline
[15] = dose: 200.0 mg/kg/injection, schedule: Q01DX009 (ip), vehicle: saline
[16] = dose: 50.0 mg/kg/injection, schedule: Q01DX009 (ip), vehicle: Klucel (hydroxypropylcellulose) (HPC)
[17] = dose: 100.0 mg/kg/injection, schedule: Q01DX009 (ip), vehicle: Klucel (hydroxypropylcellulose) (HPC)
[18] = dose: 200.0 mg/kg/injection, schedule: Q01DX005 (ip), vehicle: Klucel (hydroxypropylcellulose) (HPC)
[19] = dose: 50.0 mg/kg/injection, schedule: Q01DX005 (ip), vehicle: saline with Tween-80
[20] = dose: 100.0 mg/kg/injection, schedule: Q01DX005 (ip), vehicle: saline with Tween-80
[21] = dose: 200.0 mg/kg/injection, schedule: Q01DX005 (ip), vehicle: saline with Tween-80

## [NH-]C(Cc1cnc[n-]1)C(=O)O.[NH-]C(Cc1cnc[n-]1)C(=O)O.[O]=[Mo]1[O][Mo](=[O])[O]1 (stereo not given)
[1]
  T/C: 99 % of control
[2]
  T/C: 99 % of control
[3]
  T/C: 99 % of control

## COc1ccc(CSC(=S)Nc2ccc(Br)c(C)c2)cc1
[1]
  T/C: 96 % of control
[2]
  T/C: 101 % of control
[3]
  T/C: 109 % of control

## OC(c1cc2cc(Cl)c(Cl)cc2c2cc(C(F)(F)F)ccc12)C1CCCCN1 (stereo not given)
[4]
  T/C: 109 % of control
[5]
  T/C: 102 % of control

## C#CC(C)(C)Oc1ccc2c(=O)c(-c3ccc(OC)c(OC)c3)coc2c1
[6]
  T/C: 90 % of control
[7]
  T/C: 92 % of control
[8]
  T/C: 89 % of control

## N#Cc1ncc(Cl)c2ccccc12
[1]
  T/C: 90 % of control
[2]
  T/C: 87 % of control
[3]
  T/C: 97 % of control

## Fc1cccc(C(Nc2nncs2)Nc2nncs2)c1
[9]
  T/C: 108 % of control and 97 % of control
[10]
  T/C: 112 % of control and 114 % of control
dose: 400.0 mg/kg/injection, schedule: Q01DX005 (ip), vehicle: Klucel (hydroxypropylcellulose) (HPC)
  T/C: 159 % of control

## CCC1CCCCN1C (stereo not given)
dose: 25.0 mg/kg/injection, schedule: Q01DX005 (ip), vehicle: saline
  T/C: 103 % of control
dose: 25.0 mg/kg/injection, schedule: Q01DX009 (ip), vehicle: saline
  T/C: 105 % of control
dose: 50.0 mg/kg/injection, schedule: Q01DX005 (ip), vehicle: saline
  T/C: 98 % of control
[11]
  T/C: 110 % of control
dose: 100.0 mg/kg/injection, schedule: Q01DX005 (ip), vehicle: saline
  T/C: 95 % of control

## O=C1c2cccc(O)c2C(=O)c2c(OC3OC(CO)C(OC4OC(CO)C(O)C(O)C4O)C(O)C3O)cccc21 (stereo not given)
dose: 12.5 mg/kg/injection, schedule: Q04DX003 (ip), vehicle: saline with Tween-80
  T/C: 100 % of control
[12]
  T/C: 100 % of control
[11]
  T/C: 104 % of control
[13]
  T/C: 99 % of control
[14]
  T/C: 107 % of control
[15]
  T/C: 102 % of control

## CC1(C)C2CCC1(C)C(OC(=O)/C=C/c1ccc(O)c(O)c1)C2 (stereo not given)
dose: 12.5 mg/kg/injection, schedule: Q01DX009 (ip), vehicle: Klucel (hydroxypropylcellulose) (HPC)
  T/C: 100 % of control
dose: 25.0 mg/kg/injection, schedule: Q01DX009 (ip), vehicle: Klucel (hydroxypropylcellulose) (HPC)
  T/C: 98 % of control
[16]
  T/C: 87 % of control
[17]
  T/C: 97 % of control

## CCCn1c(CC)nc2c(cnn2C)c1=O
[9]
  T/C: 101 % of control
[10]
  T/C: 101 % of control
[18]
  T/C: 101 % of control

## CCNC(=O)OCC1=C(COC(=O)NCC)C2OC1C(C(=O)OC)=C2C(=O)OC
dose: 3.13 mg/kg/injection, schedule: Q01DX009 (ip), vehicle: distilled water + Tween-80
  T/C: 100 % of control
dose: 6.25 mg/kg/injection, schedule: Q01DX009 (ip), vehicle: distilled water + Tween-80
  T/C: 98 % of control
dose: 12.5 mg/kg/injection, schedule: Q01DX009 (ip), vehicle: distilled water + Tween-80
  T/C: 100 % of control and 87 % of control
dose: 25.0 mg/kg/injection, schedule: Q01DX009 (ip), vehicle: distilled water + Tween-80
  T/C: 109 % of control

## Oc1cc2c(cc1C(Nc1ncccn1)c1ccc(F)cc1)OCO2 (stereo not given)
[6]
  T/C: 99 % of control
[7]
  T/C: 91 % of control
[8]
  T/C: 92 % of control

## O=c1c2ccccc2oc2cc3c(c(O)c12)CCCC3
dose: 12.5 mg/kg/injection, schedule: Q01DX005 (ip), vehicle: saline with Tween-80
  T/C: 91 % of control
dose: 25.0 mg/kg/injection, schedule: Q01DX005 (ip), vehicle: saline with Tween-80
  T/C: 97 % of control

## CC1=Nc2nc(=NCCCN(C)C)nc3cccc(n23)N1
dose: 15.0 mg/kg/injection, schedule: Q01DX005 (ip), vehicle: saline with Tween-80
  T/C: 99 % of control
dose: 30.0 mg/kg/injection, schedule: Q01DX005 (ip), vehicle: saline with Tween-80
  T/C: 100 % of control
[6]
  T/C: 104 % of control and 97 % of control

## Cc1cccc(/C=C/C(=O)C(CN(C)C)CN(C)C)c1
dose: 6.25 mg/kg/injection, schedule: Q01DX005 (ip), vehicle: Klucel (hydroxypropylcellulose) (HPC)
  T/C: 104 % of control
dose: 12.5 mg/kg/injection, schedule: Q01DX005 (ip), vehicle: Klucel (hydroxypropylcellulose) (HPC)
  T/C: 100 % of control

## O=C(/C=C/c1ccc([N+](=O)[O-])cc1)Cc1ccccc1
dose: 100.0 mg/kg/injection, schedule: Q04DX002 (ip), vehicle: saline
  T/C: 97 % of control
dose: 200.0 mg/kg/injection, schedule: Q04DX002 (ip), vehicle: saline
  T/C: 104 % of control
dose: 400.0 mg/kg/injection, schedule: Q04DX002 (ip), vehicle: saline
  T/C: 100 % of control

## COc1ccc2cc3n(c(=N)c2c1OC)CCc1cc2c(cc1-3)OCO2
dose: 0.63 mg/kg/injection, schedule: Q01DX009 (ip), vehicle: water
  T/C: 101 % of control
dose: 1.25 mg/kg/injection, schedule: Q01DX009 (ip), vehicle: water
  T/C: 110 % of control
dose: 2.5 mg/kg/injection, schedule: Q01DX009 (ip), vehicle: water
  T/C: 105 % of control
dose: 5.0 mg/kg/injection, schedule: Q01DX009 (ip), vehicle: water
  T/C: 110 % of control
dose: 10.0 mg/kg/injection, schedule: Q01DX009 (ip), vehicle: water
  T/C: 110 % of control
dose: 20.0 mg/kg/injection, schedule: Q01DX009 (ip), vehicle: water
  T/C: 110 % of control

## CC(C)c1cccc(C(C)C)c1NC(=O)Nc1ccc(Cl)cc1Cl
[6]
  T/C: 114 % of control
[7]
  T/C: 104 % of control
[8]
  T/C: 116 % of control

## CCCCC(O)c1ccc[n+]([O-])c1 (stereo not given)
[11]
  T/C: 94 % of control
[14]
  T/C: 94 % of control
[15]
  T/C: 93 % of control

## CCCCCCCCCCCCCCCCON
[16]
  T/C: 103 % of control
[17]
  T/C: 111 % of control

## Cc1c(-c2ccccc2)ccnc1/C=N/NC(=S)NCCc1ccccn1
[4]
  T/C: 113 % of control
[5]
  T/C: 107 % of control and 111 % of control
dose: 25.0 mg/kg/injection, schedule: Q01DX009 (ip), vehicle: saline with Tween-80
  T/C: 115 % of control and 117 % of control
dose: 50.0 mg/kg/injection, schedule: Q01DX009 (ip), vehicle: saline with Tween-80
  T/C: 120 % of control and 122 % of control
dose: 100.0 mg/kg/injection, schedule: Q01DX009 (ip), vehicle: saline with Tween-80
  T/C: 86 % of control

## Cn1c(Cl)c(/C=N\Nc2ccc([N+](=O)[O-])cc2[N+](=O)[O-])c2ccccc21
dose: 100.0 mg/kg/injection, schedule: Q01DX001 (ip), vehicle: saline with Tween-80
  T/C: 92 % of control
dose: 200.0 mg/kg/injection, schedule: Q01DX001 (ip), vehicle: saline with Tween-80
  T/C: 93 % of control
dose: 400.0 mg/kg/injection, schedule: Q01DX001 (ip), vehicle: saline with Tween-80
  T/C: 91 % of control

## COC(=O)C1(C(=O)OC)OC(c2ccc(OC)cc2)[C@H]2C(=O)N(C)C(=O)[C@H]21 (stereo not given in full)
dose: 60.0 mg/kg/injection, schedule: Q01DX005 (ip), vehicle: Klucel (hydroxypropylcellulose) (HPC)
  T/C: 92 % of control
dose: 120.0 mg/kg/injection, schedule: Q01DX005 (ip), vehicle: Klucel (hydroxypropylcellulose) (HPC)
  T/C: 92 % of control
dose: 240.0 mg/kg/injection, schedule: Q01DX005 (ip), vehicle: Klucel (hydroxypropylcellulose) (HPC)
  T/C: 89 % of control

## CCCC1OCC(O)C(C(O)C(=O)CN(C)c2ccccc2)O1 (stereo not given)
[19]
  T/C: 98 % of control
[20]
  T/C: 100 % of control
[21]
  T/C: 98 % of control

## Cc1nc2nc(N)nc(N)c2nc1Sc1ccc(Cl)cc1
[12]
  T/C: 94 % of control
[13]
  T/C: 90 % of control

## Cc1cc2nnn(C3OC(CO)C(O)C3O)c2cc1C (stereo not given)
[9]
  T/C: 105 % of control
[10]
  T/C: 107 % of control
[18]
  T/C: 104 % of control

## Cc1c2c(c(O)c3sccc13)C(C)(C)OC2=O
[19]
  T/C: 101 % of control
[20]
  T/C: 99 % of control
[21]
  T/C: 97 % of control

## Cc1cc2ccccc2nc1C#N
dose: 25.0 mg/kg/injection, schedule: Q01DX005 (ip), vehicle: Klucel (hydroxypropylcellulose) (HPC)
  T/C: 105 % of control
[9]
  T/C: 102 % of control
[10]
  T/C: 101 % of control
[18]
  T/C: 109 % of control

## CC1=C(N2CCOCC2)C(N2CCOCC2)C(C)C1=O (stereo not given)
[9]
  T/C: 100 % of control
[10]
  T/C: 101 % of control
[18]
  T/C: 100 % of control
